Data: patent US10409869B2, “(R)- and (S)-1-(3-(3-N,N-dimethylaminocarbonyl)phenoxyl-4-nitrophenyl)-1-ethyl-N,N'-bis (ethylene)phosphoramidate, compositions and methods for their use and preparation” (OBI Pharma, Inc., priority 2015, dated 2019)
One block for each compound: values may come before it.

What was measured:
AKR1C3 [1] = molecular target: T1, AKR1C3 (Homo sapiens, UniProt P42330); assay: Activation by the aldoketo reductase AKR1C3, LC/MS/MS of % remaining; format: biochemical; conditions: 5 μM, 25 μg/mL AKR1C3, 2 mM NADPH, 37° C., up to 120 min, FIG. 2
T1 sequence (P42330 1-323): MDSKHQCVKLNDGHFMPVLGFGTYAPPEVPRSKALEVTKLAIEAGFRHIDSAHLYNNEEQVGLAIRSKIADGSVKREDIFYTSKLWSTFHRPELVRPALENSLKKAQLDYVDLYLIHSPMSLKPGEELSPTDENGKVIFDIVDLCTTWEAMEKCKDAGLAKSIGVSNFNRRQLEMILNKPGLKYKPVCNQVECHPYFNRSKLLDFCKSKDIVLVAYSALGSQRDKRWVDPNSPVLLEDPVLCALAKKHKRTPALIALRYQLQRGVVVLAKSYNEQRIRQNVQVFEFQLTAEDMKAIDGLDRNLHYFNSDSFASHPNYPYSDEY
Method: Recombinant human AKR1C3 was diluted to 25 μg/mL in phosphate buffered saline (PBS), pH 7.4 (37° C.), containing 2 mM NADPH. TH2870 or progesterone (positive control) in 30% methanol/70% water was added to the reaction mixture at a final concentration of 5 μM and incubated at 37° C. for 120 minutes. At various times up to 120 min, 50 μL of the reaction mixture was taken and 200 μL acetonitrile containing propranolol as internal standard was added, vortex-mixed and centrifuged for 10 min. The resulting supernatant (5 μL) was injected into a LC/MS/MS for quantitation of % remaining TH 2870 and progesterone. The compounds were tested in duplicates.

AKR1C3 [2] = molecular target: T1, AKR1C3; conditions: cited from earlier work
[3] = human, in vivo; cited from earlier work
[4] = system: HepG2-GFP human hepatocellular carcinoma; assay: Orthotopic HepG2-GFP human hepatocellular carcinoma mouse model, tumor burden; format: in vivo, nude mice
Method: Female athymic nude mice (6 weeks of age) were used in this study. The animals were purchased from Beijing HFK Bioscience, Co., Ltd and maintained in a High Efficiency Particulate Air Filter (HEPA) filtered environment with cages, food, and bedding sterilized by irradiation or autoclaving. A total of 32 nude mice were used for the study. HepG2-GFP human hepatocellular carcinoma cells (AntiCancer, Inc., San Diego, Calif.) were incubated with RPMI-1640 (Gibco-BRL, Life Technologies, Inc.), which contained 10% FBS. Cells were grown in a CO2 Water Jacketed Incubator (Forma Scientific) maintaining 37° C. and a 5% CO2/95% air atmosphere. Cell viability was determined by trypan blue exclusion analysis. Five female athymic nude mice were injected subcutaneously with a single dose of 5×10^6 HepG2-GFP cells. Tumors were harvested when their size reached 1 cm^3 and the tumor tissues were then cut into small fragments of 1 mm^3. Forty female nude mice were implanted orthotopically with a single piece of tumor fragment, which was derived from a subcutaneous tumor model of HepG2-GFP human hepatocellular carcinoma. The tumor tissue was orthotopically implanted in the right lobe of the liver in each mouse by SOI (Surgical Orthotopic Implantation). […]
During the period of the study, all of the experimental mice were checked daily for mortality or signs of morbidity. […] The body weights of the mice were measured twice weekly during the study period. […] Comparisons of body weights and tumor burdens in different groups were analyzed using the Student's t-test with an α=0.05 (two-sided). […]
The progressions of orthotopic HepG2-GFP hepatocellular carcinoma in different groups were monitored by real time imaging. […] Typical tumor images at the end of the study in each group and tumor growth curves derived from the signals of tumor fluorescence, which were analyzed using the Power Station software (INDEC Biosystems, CA, USA), are shown in FIG. 6 and FIG. 7, respectively
Tumor IR was calculated based on the final average tumor weights according to the formula: IR (%)=(1−treatment(t)/control(c))×100

[5] = Body weight and toxicity in the orthotopic HepG2-GFP mouse model; format: in vivo, nude mice; conditions: 30 mg/kg, Qdx35, gavage

disappearance (% remaining) in the presence of AKR1C3 (AKR1C3 [1]): rapid disappearance
SMILES: CC(OP(=O)(N1CC1)N1CC1)c1ccc([N+](=O)[O-])c(Oc2cccc(C(=O)N(C)C)c2)c1 (racemic) [TH 2870, (R,S)-1-(3-(3-N,N-dimethylaminocarbonyl)phenoxyl-4-nitrophenyl)-1-ethyl-N,N′-bis(ethylene)phosphoramidate]

SMILES: CS(=O)(=O)OCCN(CCBr)c1c(C(=O)NCCOP(=O)(O)O)cc([N+](=O)[O-])cc1[N+](=O)[O-] [PR 104]
substrate for AKR1C3 (AKR1C3 [2]): weak substrate
efficacy in clinical trials [3]: ineffective

disappearance (% remaining) in the presence of AKR1C3 (AKR1C3 [1]): reduced slowly
SMILES: CC(=O)[C@H]1CC[C@H]2[C@@H]3CCC4=CC(=O)CC[C@]4(C)[C@H]3CC[C@]12C [Progesterone, reference compound]

SMILES: CNC(=O)c1cc(Oc2ccc(NC(=O)Nc3ccc(Cl)c(C(F)(F)F)c3)cc2)ccn1 [Sorafenib, sorafenib]
average tumor size, % less than in the negative control group ([4]; 30 mg/kg, Qdx35, gavage, P=0.0577): about 39%
inhibitory effect on orthotopic HepG2-GFP model ([4]; at tested dosages): had inhibitory effect
Body Weight Growth Rate [5]: 21%
Day 0, Body Weight (mean ± sd) [5]: 15.1 ± 1.1 g
Day 35, Body Weight (mean ± sd) [5]: 18.2 ± 0.8 g
toxicity to the experimental mice ([5]; body weight lower than negative control): a certain degree of toxicity
